The target in one test is T1, ferroportin (Homo sapiens, UniProt Q9NP59).
T1 sequence (Q9NP59 1-571): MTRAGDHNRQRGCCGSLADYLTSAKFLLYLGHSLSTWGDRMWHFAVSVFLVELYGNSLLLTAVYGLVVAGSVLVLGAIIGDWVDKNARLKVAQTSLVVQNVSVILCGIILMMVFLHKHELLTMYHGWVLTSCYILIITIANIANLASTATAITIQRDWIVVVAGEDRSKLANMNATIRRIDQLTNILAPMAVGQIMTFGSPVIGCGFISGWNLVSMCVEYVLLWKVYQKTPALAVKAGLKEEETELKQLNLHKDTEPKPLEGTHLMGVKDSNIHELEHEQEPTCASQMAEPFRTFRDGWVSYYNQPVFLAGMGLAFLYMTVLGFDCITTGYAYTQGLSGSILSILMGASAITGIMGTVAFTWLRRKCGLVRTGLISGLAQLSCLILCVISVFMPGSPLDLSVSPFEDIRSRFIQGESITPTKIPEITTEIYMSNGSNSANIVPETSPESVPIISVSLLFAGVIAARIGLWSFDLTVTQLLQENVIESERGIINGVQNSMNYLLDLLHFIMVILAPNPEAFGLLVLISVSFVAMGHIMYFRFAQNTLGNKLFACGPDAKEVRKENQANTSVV
Nature of the test: T47D cell-based ferroportin internalization assay in presence of 0.5% mouse serum albumin (MSA). The conditions noted are these: T47D cells. The procedure: The potency of the peptides in causing ferroportin internalization was evaluated in a T47D cell-based assay. […] In this internalization assay, the potency of the test peptides was evaluated in presence of serum albumin which is the main protein component in the blood. T47D cells were maintained in RPMI media (containing required amount of fetal bovine serum) and regularly sub-cultured. In preparation for the assay, the cells were seeded in 96-well plates at a density of 80-100 k cells per well in 100 ul volume and allowed to rest overnight. On the next day, test peptides were first prepared in dilution series (10-point series, starting concentration of ˜5 μM, typically 3-4×fold dilution steps), all with 0.5% mouse serum albumin (MSA purified from mouse serum; Sigma, A3139). The test peptide dilution series were allowed to incubate at room temperature for 30 min. Then the media was aspirated from the 96-well cell plate and test peptide dilution series were added. After 1 hr incubation, the media with test peptides was aspirated out and AF647-conjugated detection peptide was added at fixed concentration of 200 nM. The AF647-conjugated detection peptide was previously verified to bind to ferroportin and cause its internalization. The cells were washed again after a 2 hr incubation in preparation for flow cytometry analysis. The Median Fluorescence Intensity (MFI) of the AF647-positive population was measured (after removing dead cells and non-singlets from the analysis). The MFI values were used to generate a dose-response curve and obtain IC50 potencies for the test peptides. The IC50 potencies were calculated by using 4-parameter non-linear fitting function in Graphpad Prism (Table 6A).

The target of test [1] is T2, human ferroportin (SLC40A1) (Homo sapiens, UniProt Q9NP59).
T2 sequence (Q9NP59 1-571): T1 sequence (Q9NP59 1-571)
Nature of the test: FPN activity assay: internalization/degradation of ferroportin-GFP in stably transfected HEK293 cells (decrease in GFP fluorescence). The conditions noted are these: compound incubated at least 18 hours. It is filed as cell-based. In outline:
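HEK293 cells stably expressing human ferroportin C-terminally fused to GFP were exposed to peptides for at least 18 h, at most 24 h. Internalization/degradation read as loss of GFP fluorescence; EC50 derived. Retro-inverse mini-hepcidin peptides used as control standards.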

Consider 14 compounds from patent publication US20240209053A1 (Protagonist Therapeutics, Inc., priority 2021, published 2024).

pIC50: −log10 of the molar value. Numbered stars: 1 amine (or outer) side, 2 acyl side, 3 side chain; on linkers, the order of the positions; unused ones are H or OH. Bridge positions count the residues as written; N and C are the ends. Square brackets hold non-standard residues; d marks the D form. Side chains are listed from the residue outwards. Peptide text beside a SMILES is read from it. * marks the point of attachment. Dip = N[C@H](C(=O)O)C(c1ccccc1)c1ccccc1; Hag = O=C([C@H](CCC=[*:3])N[*:1])[*:2]; Palmitoyl = CCCCCCCCCCCCCCCC(=O)*; tBuAla = CC(C)(C)C[C@H](N)C(=O)O; β3hF = N[C@H](CC(=O)O)Cc1ccccc1; NMeL = CN[C@@H](CC(C)C)C(=O)O; Isovaleryl = CC(C)CC(=O)*; Ahx = NCCCCCC(=O)O

As for `CCCCCCCCCCCCCCCC(=O)NCCCCCC(=O)NCCCC[C@H](NC(=O)C[C@H](Cc1ccccc1)NC(=O)[C@@H]1CCC=CCC[C@H](NC(=O)CC(C)C)C(=O)N[C@@H]([C@@H](C)O)C(=O)N[C@@H](C)C(=O)N[C@@H](C(c2ccccc2)c2ccccc2)C(=O)N2CCC[C@H]2C(=O)N[C@@H](C)C(=O)N[C@@H]([C@@H](C)CC)C(=O)N1)C(=O)N[C@H](CCCCN)C(N)=O` [Compd 42] (Isovaleryl-[Hag]TA[Dip]PAI[Hag][β3hF]K([Ahx-Palmitoyl])[dK]-NH2; staple 1-8), the pIC50 (on ferroportin; in test [1]) was 6.30 to 7.00 each time.

For the compound `CCCCCCCCCCCCCCCC(=O)NCCCCCC(=O)NCCCC[C@H](NC(=O)C[C@H](Cc1ccccc1)NC(=O)[C@@H]1CCC=CCC[C@H](NC(=O)CC(C)C)C(=O)N[C@@H]([C@@H](C)O)C(=O)N[C@@H](Cc2c[nH]cn2)C(=O)N[C@@H](C(c2ccccc2)c2ccccc2)C(=O)N2CCC[C@H]2C(=O)N[C@@H](C)C(=O)N[C@@H](C)C(=O)N1)C(=O)N[C@H](CCCCN)C(N)=O` [Compd 45] (Isovaleryl-[Hag]TH[Dip]PAA[Hag][β3hF]K([Ahx-Palmitoyl])[dK]-NH2; staple 1-8), the pIC50 (on ferroportin; in test [1]) was 7.00 to 8.00 throughout.

Take `CCCCCCCCCCCCCCCC(=O)NCCCCCC(=O)NCCCC[C@H](NC(=O)[C@H](C)NC(=O)[C@@H]1CCC=CCC[C@H](NC(=O)CC(C)C)C(=O)N[C@@H]([C@@H](C)O)C(=O)N[C@@H](Cc2c[nH]cn2)C(=O)N[C@@H](C(c2ccccc2)c2ccccc2)C(=O)N2CCC[C@H]2C(=O)N[C@@H](C)C(=O)N[C@@H]([C@@H](C)CC)C(=O)N1)C(=O)N[C@H](CCCCN)C(N)=O` [Compd 46] (Isovaleryl-[Hag]TH[Dip]PAI[Hag]AK([Ahx-Palmitoyl])[dK]-NH2; staple 1-8): the pIC50 (at ferroportin; in test [1]) was 6.30 to 7.00 throughout.

As for `CC[C@H](C)[C@@H]1NC(=O)[C@H](C)NC(=O)[C@@H]2CCCN2C(=O)[C@H](C(c2ccccc2)c2ccccc2)NC(=O)[C@H](Cc2c[nH]cn2)NC(=O)[C@H]([C@@H](C)O)NC(=O)[C@@H](NC(=O)CC(C)C)CCC=CCC[C@@H](C(=O)N[C@H](CC(=O)N[C@@H](C)C(=O)N[C@H](CCCCN)C(N)=O)Cc2ccccc2)NC1=O` [Compd 47] (Isovaleryl-[Hag]TH[Dip]PAI[Hag][β3hF]A[dK]-NH2; staple 1-8), the pIC50 (at ferroportin; in test [1]) was 7.00 to 8.00 each time.

With `CCCCCCCCCCCCCCCC(=O)NCCCCCC(=O)NCCCC[C@H](NC(=O)C[C@H](Cc1ccccc1)NC(=O)[C@@H]1CCC=CCC[C@H](NC(=O)CC(C)C)C(=O)N[C@@H]([C@@H](C)O)C(=O)N[C@@H](Cc2c[nH]cn2)C(=O)N[C@@H](C(c2ccccc2)c2ccccc2)C(=O)N2CCC[C@H]2C(=O)N[C@@H](C)C(=O)N[C@@H]([C@@H](C)CC)C(=O)N1)C(=O)N[C@@H](C)C(N)=O` [Compd 48] (Isovaleryl-[Hag]TH[Dip]PAI[Hag][β3hF]K([Ahx-Palmitoyl])A-NH2; staple 1-8), the pIC50 (at ferroportin; in test [1]) was 7.00 to 8.00 throughout.

`CCCCCCCCCCCCCCCC(=O)NCCCCCC(=O)NCCCC[C@H](NC(=O)C[C@H](Cc1ccccc1)NC(=O)[C@@H]1CCC=CCC[C@H](NC(=O)CC(C)C)C(=O)N(C)[C@@H]([C@@H](C)O)C(=O)N[C@@H](Cc2c[nH]cn2)C(=O)N[C@@H](C(c2ccccc2)c2ccccc2)C(=O)N2CCC[C@H]2C(=O)N[C@@H](C)C(=O)N[C@@H]([C@@H](C)CC)C(=O)N1)C(=O)N[C@H](CCCCN)C(N)=O` [Compd 49]: the pIC50 (in general, −log10 of the IC50, conventionally taken in molar units) at ferroportin is 6.30 to 7.00; in test [1] it was 7.00 to 8.00.

Consider `CCCCCCCCCCCCCCCC(=O)NCCCCCC(=O)NCCCC[C@H](NC(=O)C[C@H](Cc1ccccc1)NC(=O)[C@@H]1CCC=CCC[C@H](NC(=O)CC(C)C)C(=O)N[C@@H]([C@@H](C)O)C(=O)N[C@@H](Cc2c[nH]cn2)C(=O)N[C@@H](C(c2ccccc2)c2ccccc2)C(=O)N2CCC[C@H]2C(=O)N(C)[C@@H](C)C(=O)N[C@@H]([C@@H](C)CC)C(=O)N1)C(=O)N[C@H](CCCCN)C(N)=O` [Compd 52], for which the pIC50 (on ferroportin; in test [1]) was 7.00 to 8.00 each time.

For the compound `CCCCCCCCCCCCCCCC(=O)NCCCCCC(=O)NCCCC[C@H](NC(=O)C[C@H](Cc1ccccc1)NC(=O)[C@@H]1CCC=CCC[C@H](NC(=O)CC(C)C)C(=O)N[C@@H]([C@@H](C)O)C(=O)N[C@@H](Cc2c[nH]cn2)C(=O)N[C@@H](C(c2ccccc2)c2ccccc2)C(=O)N2CCC[C@H]2C(=O)N[C@@H](C)C(=O)N(C)[C@@H](CC(C)C)C(=O)N1)C(=O)N[C@H](CCCCN)C(N)=O` [Compd 53] (Isovaleryl-[Hag]TH[Dip]PA[NMeL][Hag][β3hF]K([Ahx-Palmitoyl])[dK]-NH2; staple 1-8), the negative logarithm of the IC50 (pIC50) on ferroportin is 7.00 to 8.00; in test [1] it was 6.30 to 7.00.

As for `CCCCCCCCCCCCCCCC(=O)NCCCCCC(=O)NCCCC[C@H](NC(=O)[C@H](Cc1ccccc1)N(C)C(=O)[C@@H]1CCC=CCC[C@H](NC(=O)CC(C)C)C(=O)N[C@@H]([C@@H](C)O)C(=O)N[C@@H](Cc2c[nH]cn2)C(=O)N[C@@H](C(c2ccccc2)c2ccccc2)C(=O)N2CCC[C@H]2C(=O)N[C@@H](C)C(=O)N[C@@H]([C@@H](C)CC)C(=O)N1)C(=O)N[C@H](CCCCN)C(N)=O` [Compd 54], the results for the pIC50 (at ferroportin; in test [1]) were 6.30 to 7.00 and 7.00 to 8.00, respectively.

In the case of `CCCCCCCCCCCCCCCC(=O)NCCCCCC(=O)NCCCC[C@@H](C(=O)N[C@H](CCCCN)C(N)=O)N(C)C(=O)C[C@H](Cc1ccccc1)NC(=O)[C@@H]1CCC=CCC[C@H](NC(=O)CC(C)C)C(=O)N[C@@H]([C@@H](C)O)C(=O)N[C@@H](Cc2c[nH]cn2)C(=O)N[C@@H](C(c2ccccc2)c2ccccc2)C(=O)N2CCC[C@H]2C(=O)N[C@@H](C)C(=O)N[C@@H]([C@@H](C)CC)C(=O)N1` [Compd 55], the pIC50 is 7.00 to 8.00 at ferroportin and 8.00 to 9.00 in test [1].

With `CCCCCCCCCCCCCCCC(=O)NCCCCCC(=O)NCCCC[C@H](NC(=O)C[C@H](Cc1ccccc1)NC(=O)[C@@H]1CCC=CCC[C@H](NC(=O)CC(C)C)C(=O)N[C@@H]([C@@H](C)O)C(=O)N[C@@H](Cc2c[nH]cn2)C(=O)N[C@@H](C(c2ccccc2)c2ccccc2)C(=O)N2CCC[C@H]2C(=O)N[C@@H](C)C(=O)N[C@@H]([C@@H](C)CC)C(=O)N1)C(=O)N(C)[C@H](CCCCN)C(N)=O` [Compd 56], the results for the pIC50 (at ferroportin; in test [1]) were 7.00 to 8.00 and 8.00 to 9.00, respectively.

Take `CCCCCCCCCCCCCCCC(=O)NCCCCCC(=O)NCCCC[C@H](NC(=O)C[C@H](Cc1ccccc1)NC(=O)[C@@H]1CCC=CCC[C@H](NC(=O)CC(C)C)C(=O)N[C@@H]([C@@H](C)O)C(=O)N[C@@H](Cc2c[nH]cn2)C(=O)N[C@@H](C(c2ccccc2)c2ccccc2)C(=O)N2CCC[C@H]2C(=O)N[C@@H](CC(C)(C)C)C(=O)N[C@@H]([C@@H](C)CC)C(=O)N1)C(=O)N[C@H](CCCCN)C(N)=O` [Compd 62] (Isovaleryl-[Hag]TH[Dip]P[tBuAla]I[Hag][β3hF]K([Ahx-Palmitoyl])[dK]-NH2; staple 1-8): the pIC50 at ferroportin is 8.00 to 9.00; in test [1] it was 7.00 to 8.00.

In the case of `CCCCCCCCCCCCCCCC(=O)NCCCCCC(=O)NCCCC[C@H](NC(=O)C[C@H](Cc1ccccc1)NC(=O)[C@@H]1CCC=CCC[C@H](NC(=O)CC(C)C)C(=O)N[C@@H]([C@@H](C)O)C(=O)N[C@@H](Cc2c[nH]cn2)C(=O)N[C@@H](C(c2ccccc2)c2ccccc2)C(=O)N2CCC[C@H]2C(=O)N[C@@H](C)C(=O)N[C@@H](CC(C)(C)C)C(=O)N1)C(=O)N[C@H](CCCCN)C(N)=O` [Compd 63] (Isovaleryl-[Hag]TH[Dip]PA[tBuAla][Hag][β3hF]K([Ahx-Palmitoyl])[dK]-NH2; staple 1-8), the pIC50 (at ferroportin; in test [1]) was 8.00 to 9.00 each time.

Take `CCCCCCCCCCCCCCCC(=O)NCCCCCC(=O)NCCCC[C@H](NC(=O)[C@H](CC(C)(C)C)NC(=O)[C@@H]1CCC=CCC[C@H](NC(=O)CC(C)C)C(=O)N[C@@H]([C@@H](C)O)C(=O)N[C@@H](Cc2c[nH]cn2)C(=O)N[C@@H](C(c2ccccc2)c2ccccc2)C(=O)N2CCC[C@H]2C(=O)N[C@@H](C)C(=O)N[C@@H]([C@@H](C)CC)C(=O)N1)C(=O)N[C@H](CCCCN)C(N)=O` [Compd 64] (Isovaleryl-[Hag]TH[Dip]PAI[Hag][tBuAla]K([Ahx-Palmitoyl])[dK]-NH2; staple 1-8): the negative-log IC50 (pIC50) (at ferroportin; in test [1]) was 7.00 to 8.00 throughout.
